In US20150250824A1, “METHODS AND COMPOSITIONS FOR EXPANSION OF STEM CELLS AND OTHER CELLS” (The Research Foundation For The State University Of New York, priority 2014, published 2015):
Entries after “also recorded” stand apart in the source; their conditions may differ. Structures can show the parent of a compound that is named as a salt. Where two headings read alike, the source gives them in different places.

Key:
[1] = tested on: human CB CD34+ cells; test: Ex vivo expansion of cord blood CD34+ cells in HSC media with small molecules; format: cell-based; details: for retention/expansion of CD34+CD38− stem/progenitor cells compared to control: 5 days, HSC media with SCF, TPO, Flt-3 ligand 100 ng/ml each, Z 100 nM, Bix 1 μM, T 10 μM
Description: (§1) CD34+ cells were cultured in […] medium ([…] Technologies, Vancouver, BC, Canada) supplemented with 10% FBS, 100 ng/ml hSCF (human stem cell factor), 100 ng/ml hTPO (human thrombopoietin), 100 ng/ml hFLT-3 ligand (Human Fms-related Tyrosine Kinase 3) (Peprotech, Rocky Hill, N.J., USA) and 100 U/ml penicillin/streptomycin (Gibco). Human cortex Neural Progenitor Cell line (hcx NSC) was maintained in ReNcell medium: ReNcell NSC Maintenance medium (Millipore) supplemented with 20 ng/ml human EGF, 20 ng/ml human bFGF (Peprotech) and 100 U/ml penicillin/streptomycin. For expansion of cells targeted for cell sorting, we used the same media containing a different cytokine cocktail of 100 ng/ml SCF, TPO and 10 ng/ml IL-3.
Cells were centrifuged for 5 minutes at 200 G at 4° C. Cells were resuspended with CD34, 38 and/or 41 conjugated antibodies for 30 minutes on ice. Cells were then washed with 2 ml of PBS and centrifuged for 5 minutes at 200 G at 4° C. The final pellet was resuspended using 300 μl of 2% formalin. […]
Recent studies in iPS cell reprogramming have discovered numerous small molecules modulating iPS cell reprogramming through different cellular mechanisms. These could include cellular signaling pathways (such as Wnt signaling and TGF beta) and epigenetic mechanisms, such as DNA methyltransferases, histone methylation and histone deacetylation. We have screened small molecule modulators involving these cellular mechanisms for hematopoietic stem/progenitor cell expansion. […] CB CD34+ cells were cultured for 5 days in HSC media containing SCF, TPO, and Flt-3 ligand at 100 ng/ml each. […] Bix (BIX01294), trihydrochloride hydrate is a histone methyltransferase (HMTase) G9a inhibitor (FIG. 15).
Previously we have shown that stem cell protein is a robust stimulator for hematopoietic stem/progenitor cell expansion via recruitment of various epigenetic factors such as histone deacylases and DNA methyltransferases (Yang et al, J Biol Chem. 2012, 13; 287(3): 1996-2005). […] Based on this finding, we screened the LSD1 inhibitors for the expansion of hematopoietic precursor cells. hUCB CD34+ cells were cultured for 5 days in HSC media containing SCF, TPO, and Flt-3 ligand at 100 ng/ml each.

[2] = tested on: hematopoietic stem/progenitor cells; test: Dose determination of BIX, Z and UNC on expansion of hematopoietic stem/progenitor cells; format: cell-based; details: at concentrations of 0.25×
Description: The inventors have also determined the dose for BIX, Z and UNC on the expansion of hematopoietic stem/progenitor cells. […] UNC (UNC0638) and BIX are quite similar in their impact of expansion of hematopoietic stem/progenitor cells.

[3] = tested on: CD34+ cells isolated from peripheral blood of G-CSF-mobilized donors; test: Ex vivo culture of mobilized peripheral blood CD34+ cells with compounds, CD34/CD38 flow cytometry; format: cell-based, human; details: 11 days, minimal cytokines; for effect on CD34+CD38+ and CD34+CD38− populations: C, 6, F at 10 μM, Z at 100 nM
Description: CD34+ cells were isolated from cord blood or from peripheral blood of G-CSF-mobilized adult donors and cultured as follows. Mononuclear cells (MNCs) were isolated using a simple red blood cell lysis (15 minutes at room temperature using BD PharmLyse) or using Ficoll-Paque density gradient centrifugation (Jaatinen and Laine, Current Protocols Stem Cell Biol. 1:2A.1.1-2A.1.4. (2007)). The cells were then incubated with MACS CD34+ Microbead kit (Miltenyi Biotec, Auburn, Calif.) and run through a magnetic column resulting in selection for CD34+ cells. […] Human cortex neural stem cell (hcx NSC) cells were purchased from Millipore.
as §1
Cells were centrifuged for 5 minutes at 200 G at 4° C. Cells were resuspended with CD34, 38 and/or 41 conjugated antibodies for 30 minutes on ice. Cells were then washed with 2 ml of PBS and centrifuged for 5 minutes at 200 G at 4° C. The final pellet was resuspended using 300 μl of 2% formalin.
CD34+ cells isolated from peripheral blood of G-CSF-mobilized donors were cultured for 11 days with minimal cytokines and the 4 chemical cocktail (C6FZ). […] The population bearing CD34+/CD38− is associated with long-term repopulating HSCs.
CD34+ cells isolated from the peripheral blood of G-CSF-mobilized donors were next cultured for 11 days with minimal cytokines and the individual compounds, C, 6, F and Z (FIG. 13).

[4] = tested on: CD34+ cells isolated from human umbilical CB; format: cell-based; details: for number of large megakaryocytes / shortening of maturation compared to control: 4-5 day culture; for ploidy development compared to control or 616452 alone: 4 and 8 days induction; for CD41 population compared to control: 4 days of culture, flow analysis
Description: Megakaryocytes derived from CB in vitro are usually smaller than megakaryocytes derived from bone marrow or mobilized peripheral blood from adults. Small megakaryocyte size may contribute to delayed platelet engraftment when cord blood is used for bone marrow transplantation. To test whether 616452 is able to increase fetal/neonatal megakaryocyte size and ploidy, CD34+ cells isolated from human umbilical CB were cultured in StemSpan SFEM containing SCF, TPO and Flt-3 Ligand. CB CD34+ cells in the presence of TPO after 4 or 8 day culture, were morphologically consistent of a relative homogenous population of small cells (FIG. 19A) and megakaryocytic features such as large nuclear size and cytoplasmic mass were hardly detectable.
One of the unique characteristics of megakaryocytes is the ploidy development of their nuclei, which can be easily measured using propidium iodide (PI), a fluorescent intercalating agent that binds to nucleic acids. Megakaryocyte (Mk) ploidy correlates well with their maturation and platelet production. […] Out of 10,000 events, the control cells only elicited only 1 cell with a ploidy of 16N and nothing thereon greater (FIG. 20A).

[5] = tested on: eiNSCs; test: In vitro expansion of episome-derived induced neural stem cells (eiNSCs); format: cell-based, human; details: added after the first passage in ReNcell medium
Description: For reprogramming of CD34+ cells to iNSCs by an OCT4 episomal vector, the CD34+ cells were transduced with an EBNV1-based pCEP4-OCT4 expression plasmid in which the CMV promoter is replaced by the SFFV promoter. Cells were transduced by electroporation using the Human CD34 Cell NUCLEOFECTOR® Kit (Lonza, Koln, Germany). Post-transduction, cells were incubated with hypoxia (5% 02), following the lentivirus reprogramming strategy described above. Dzep (3-deazaneplanocin, Sigma) was added to the solution after the first passage in ReNcell medium to maintain the cells for a longer period before senescence/quiescence.
While direct reprogramming using lentivirus does provide an increasingly popular approach that bypasses the iPS cell state, the issue of random integration of foreign DNA into the host's genome still remains. We attempted to generate iNSCs from CB by an integration-free method. CB CD34^+ were electroporated with an episomal vector containing a high expression OCT4 gene. […] In addition, eiNSCs are able to differentiate into neural and glial cells as neuron and astrocyte markers were observed after random differentiation. However, eiNSCs are slower in growth rate with a doubling time of approximately 36 hours where iNSCs have a doubling time of approximately 24 hours. […]

Which “fold increase in CD34+CD38− cells compared to the input” value ([1]; 10 μM, 5 day culture) does the source give for `Cl.N[C@H]1C[C@@H]1c1ccccc1` (racemic) [T, (±)-trans-2-Phenylcyclopropylamine hydrochloride] here?
Its value is “approximately 60 fold”.

What about the “fold increase in total cell counts compared to the input” value ([1]; 10 μM, 5 day culture) of the same compound?
Its value is roughly 45 fold.

And the “retention/expansion of CD34+CD38− stem/progenitor cells compared to control” value (“retention/expansion … compared to control” for short) ([1]; hydrochloride)?
The value was “retained a significant fraction of CD34+CD38− cells and expanded this population; also recorded: promotes hematopoietic precursor immunophenotype and expands CD34+CD38− population”.

`COc1cc2nc(N3CCCN(C)CC3)nc(NC3CCN(Cc4ccccc4)CC3)c2cc1OC` [Bix, 2-(Hexahydro-4-methyl-1H-1,4-diazepin-1-yl)-6,7-dimethoxy-N-[1-(phenylmethyl)-4-piperidinyl]-4-quinazolinamine trihydrochloride hydrate] was tested. Which toxicity [2] did it give?
Its toxicity is “no significant toxicity”.

And the “retention/expansion … compared to control” value ([1]; trihydrochloride hydrate)?
The value was “retained a large portion of CD34+CD38− stem/progenitor cells; also recorded: enhances retention and expansion of CD34+CD38-population”.

For `Cc1c[nH]c(-c2cnc(NCCNc3ccc(C#N)cn3)nc2-c2ccc(Cl)cc2Cl)n1` [CHIR99021, 6-[[2-[[4-(2,4-dichlorophenyl)-5-(5-methyl-1H-imidazol-2-yl)-2 pyrimidinyl]amino]ethyl]amino]-3-pyridinecarbonitrile], which “effect on CD34+CD38+ and CD34+CD38− populations” value (from here on “effect”) ([3]; listed as C) is on record?
The value was “does not have much of effect; also recorded: did not have much of effect”.

What about the “proliferation and maturation of CD34+ cells compared to control” value ([3]; listed as C) of the same compound?
Its value is “rapidly proliferates bone marrow CD34 cells leading to their maturation at a significantly rapid rate compared to control; also recorded: rapidly proliferated the bone marrow CD34+ cells, leading to their maturation at a significantly rapid rate compared to control”.

`C=C[C@@]1(C)CC(=O)[C@]2(O)[C@@]3(C)[C@@H](O)CCC(C)(C)[C@@H]3[C@H](O)[C@H](OC(C)=O)[C@@]2(C)O1` [F, 7β-acetoxy-8,13-epoxy-1α,6β,9α-trihydroxylabd-14-en-11-one] was tested. Which “effect” value [3] did it give?
Its value is “induce a significant proportion of CD34+CD38+ population; also recorded: induce a significant proportion of CD34+CD38+ cells; also recorded: induced a significant expansion of CD34+CD38+”.

With `NC(=O)c1ccc(-c2nc(-c3ccc4c(c3)OCO4)c(-c3ccccn3)[nH]2)cc1` [SB431542, 4-[4-(1,3-benzodioxol-5-yl)-5-(2-pyridinyl)-1H-imidazol-2-yl]benzamide] as the compound, how does the “number of large megakaryocytes / shortening of maturation compared to control” value [4] read?
Its value is “little or no effect”.

And the “ploidy development compared to control or 616452 alone” value [4]?
Its value is “no significant deviation in ploidy development”.

And the “ploidy development compared to control or 616452 alone” value ([4]; listed as SB431452)?
The value was “no significant difference”.

And the “CD41 population compared to control” value [4]?
The value was “marginal decrease in the CD41 population”.

For `COc1cc2c(NC3CCN(C(C)C)CC3)nc(C3CCCCC3)nc2cc1OCCCN1CCCC1` [UNC, 2-Cyclohexyl-6-methoxy-N-[1-(1-methylethyl)-4-piperidinyl]-7-[3-(1-pyrrolidinyl)propoxy]-4-quinazolinamine], which toxicity [2] is on record?
Its toxicity is “no significant toxicity”.

`Nc1nccc2c1ncn2[C@@H]1C=C(CO)[C@@H](O)[C@H]1O` [Z, 5R-(4-amino-1H-imidazo[4,5-c]pyridin-1-yl)-3-(hydroxymethyl)-3-cyclopentene-1S,2R-diol] was tested. Which toxicity [2] did it give?
Its toxicity is “no significant toxicity”.

And the “effect” value [3]?
The value was “best effect enhancing both CD34+CD38- and CD34+ and CD38+ positive cells; also recorded: ability to enhance both the population of single positive (CD34+CD38−) and double positive (CD34+CD38+) cells; also recorded: the most effects on the CD34+CD38− population”.

What about the “additional passages of eiNSC growth” value [5] of the same compound?
The value was “two”.

And the “retention/expansion … compared to control” value [1]?
Its value is “retained a large portion of CD34+CD38− stem/progenitor cells; also recorded: enhances retention and expansion of CD34+CD38-population; also recorded: promotes hematopoietic precursor immunophenotype and expands CD34+CD38− population”.

Which results are given for `Cc1cccc(-c2nn(C(=S)Nc3ccccc3)cc2-c2ccnc3ccccc23)n1` [compound 616454, 3-(6-Methylpyridin-2-yl)-4-(4-quinolyl)-1-phenylthiocarbamoyl-1H-pyrazole]?
number of large megakaryocytes / shortening of maturation compared to control [4]: little or no effect; CD41 population compared to control [4]: no any significant difference from control
